Assay results taken from PubChem BioAssay (NCI).
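Five compound concentrations were applied to cells in 96-well plates for 48 hours; endpoints were derived by simple linear interpolation of the resulting dose-response curve. At the TGI there is no net growth.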

Tested on: SN12K1 renal
Assay: NCI-60 cell line screen, 48 h

For `CN(N=O)C(=O)N[C@@H](C=O)[C@@H](O)[C@H](O)[C@H](O)CO`, the TGI was 546 µM.
